We go through 2 molecules from PMC10089289, “Well-Defined Heparin Mimetics Can Inhibit Binding of the Trimeric Spike of SARS-CoV-2 in a Length-Dependent Manner” (JACS Au, 2023).

As usually defined, the IC50 is the point on the concentration scale where inhibition reaches its midpoint.

The structures appear in SMILES notation.

For series [1], the target named is SARS-CoV-2 Wuhan RBD binding to Vero E6 cells (Severe acute respiratory syndrome coronavirus 2, UniProt P0DTC2). The series is classed as cell-based.
Series [2] deals with T1, antithrombin-III (AT-III) (Homo sapiens, UniProt P01008).
T1 construct: purchased Haematologic technologies
T1 sequence (P01008 33-464): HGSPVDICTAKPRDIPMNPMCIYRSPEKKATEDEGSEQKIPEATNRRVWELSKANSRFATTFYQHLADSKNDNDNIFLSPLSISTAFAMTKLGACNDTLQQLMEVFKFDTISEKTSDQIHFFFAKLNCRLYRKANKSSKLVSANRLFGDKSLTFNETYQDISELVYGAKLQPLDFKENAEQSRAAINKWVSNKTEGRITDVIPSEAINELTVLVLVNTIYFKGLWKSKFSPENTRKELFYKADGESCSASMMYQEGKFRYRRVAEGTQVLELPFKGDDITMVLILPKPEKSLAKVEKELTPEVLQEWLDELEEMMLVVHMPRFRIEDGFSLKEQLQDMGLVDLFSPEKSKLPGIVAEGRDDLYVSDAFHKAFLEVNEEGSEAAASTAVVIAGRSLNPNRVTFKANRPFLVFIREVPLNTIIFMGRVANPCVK
Briefly: SPR competition assay: binding of AT-III to heparin chip. The note with it: 100 nM AT-III, 100 to 0.001 μg/mL. The text has this:
(§1) A competition SPR method[32]−[34] was employed to examine the binding of compounds 1 and 6 to AT-III and PF4, and the results were compared to similar properties of UFH. First, biotinylated heparin was immobilized on a streptavidin-coated sensor chip, which was employed to establish equilibrium dissociation constants (KD) of AT-III and PF4 by employing different concentrations of these proteins as analytes (Figure S9). […] The determined KD values are in close agreement with literature reports.[34]−[36] Next, inhibition experiments were performed by premixing different concentrations of monovalent 1, tetravalent 6, and UFH with AT-III or PF4 followed by exposure to the sensor chip modified by heparin. […] The fact that tetravalent 6 does bind to PF4 supports the notion that it is a mimetic of heparin.
(§2) 6. Coagulation-related proteins SPR binding and competition studies
(§3) Coagulation-related proteins SPR binding studies: Human antithrombin-III (AT-III) was obtained from Haematologic technologies. […] Using Biacore T100 evaluation software, AT-III equilibrium dissociation constant (KD) was determined by fitting binding curves to two-state reaction model built in Biacore T100 evaluation software. For PF-4, steady-state affinity analysis was performed on the response curves of various PF-4 concentrations and KD value was calculated (Figure S9). […]

The test system of a further series is Vero E6 cells. Conditions: 100 μg/mL; 24 h incubation.
In another series the test system is Factor-Xa. Briefly: AT-III mediated Factor-Xa inhibition assay (Biophen Anti-Xa, two-stage chromogenic). The series is classed as biochemical, bovine. The note with it: colorimetric, Biophen Anti-Xa kit. The protocol:
(§4) To validate the SPR results, AT-III-mediated anti-Factor-Xa and anti-Factor-IIa activities of the mimetics and UFH were measured using a colorimetric assay (Biophen Anti-Xa and Anti-IIa kits, two-stage chromogenic assays) (Figures 6B and S16–S17).
(§5) AT-III mediated Factor-IIa inhibition assays: Anti-Factor IIa activity of mimetics (1 and 6) and UFH was determined by BIOPHENÔ ANTI-IIa (2 Stages Heparin Assay) kit following manufacturer’s instructions. Human antithrombin (AT-III), purified human thrombin (Factor IIa) and thrombin specific chromogenic substrate [CS-01(38)] were reconstituted and prepared in specific buffers in accordance with kit protocol. […] After exactly 2 min, the reaction was stopped by introducing citric acid (2 wt.%, 80 µL), mixed and absorbance at 405 nm (POLARstar Optima, BMG Labtech) against the corresponding blank was measured. […] Measured blank value were subtracted from the absorbance measured for the corresponding test. The IC50 values (Figures S16) were calculated using dose-response equations [nonlinear regression, log(inhibitor) vs. response-variable slope (four parameters)] built in Prism software 9 (GraphPad Software, Inc.). […]
(§6) AT-III mediated Factor-Xa inhibition assays: Anti-Factor Xa activity of mimetics (1 and 6) and UFH was determined by BIOPHENÔ ANTI-Xa (2 Stages Heparin Assay) kit following manufacturer’s instructions. […]

The target in a further series is T2, Factor-IIa (thrombin) (Homo sapiens, UniProt P00734).
T2 construct: purchased BIOPHEN ANTI-IIa (2 Stages Heparin Assay) kit
Briefly: AT-III mediated Factor-IIa inhibition assay (Biophen Anti-IIa, two-stage chromogenic). The series is classed as biochemical. Conditions: colorimetric, Biophen Anti-IIa kit. The protocol: as §4, §5, §6

The target of series [3] is trimeric spike glycoprotein of SARS-CoV-2. Briefly: SPR competition assay: binding of SARS-CoV-2 spike trimer to heparin-immobilized sensor chip. Conditions: 100 nM spike trimer, 25 °C, read-out: IC50, inhibition of binding of spike trimer to immobilized heparin (50% reduction in RUs).
The target in the next series is T3, platelet factor 4 (PF4) (Homo sapiens, UniProt P02776).
T3 construct: purchased Sino Biological, Inc
T3 sequence (P02776 32-101): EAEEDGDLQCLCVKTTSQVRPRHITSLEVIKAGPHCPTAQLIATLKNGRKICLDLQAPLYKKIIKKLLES
Briefly: SPR competition assay: binding of PF4 to heparin chip. Conditions: 100 nM PF-4, 100 to 0.001 μg/mL.
Description: as §1, §2, §3

With `NCCCCCOC1OC(COS(=O)(=O)O)C(OC2OC(C(=O)O)C(OC3OC(COS(=O)(=O)O)C(OC4OC(C(=O)O)C(OC5OC(COS(=O)(=O)O)C(OC6OC(C(=O)O)C(O)C(O)C6O)C(O)C5NS(=O)(=O)O)C(O)C4OS(=O)(=O)O)C(O)C3NS(=O)(=O)O)C(O)C2OS(=O)(=O)O)C(O)C1NS(=O)(=O)O` (stereo not drawn) [Compound 1, GlcA-GlcNS6S-IdoA2S-GlcNS6S-IdoA2S-GlcNS6S], in series [1] (125 μg/mL (62.6 μM), RBDs from Wuhan and delta), the “Inhibition of trimeric RBD binding to Vero E6 cells” value is listed as “failed to invoke substantial inhibition”. Also, in series [1] (RBD pretreated with 10 and 125 μg/mL compound), the “Inhibition of Wuhan RBD binding to Vero E6 cells” value was “no inhibition was detected”. Also, the “IC50, inhibition of AT-III binding to heparin surface” value in series [2] is reported as “no inhibitory potential”. In the series with Vero E6 cells, the “Cytotoxicity on Vero E6 cells” value is listed as “no toxicity”. Further, the “IC50, AT-III-mediated inhibition of Factor-Xa” value in the series with Factor-Xa came out at 70 µg/mL. Further, at Factor-IIa (thrombin), the “IC50, AT-III-mediated inhibition of Factor-IIa” value was “failed to invoke any inhibition”. Moreover, in series [3], the IC50 was greater than 50 µM. The “IC50, inhibition of PF4 binding to heparin surface” value on platelet factor 4 (PF4) is recorded as “no inhibition was observed”.

With `CC(=O)NC1C(OC2C(C(=O)O)OC(OC3C(COS(=O)(=O)O)OC(OC4C(C(=O)O)OC(OC5C(COS(=O)(=O)O)OC(OC6C(C(=O)O)OC(OC7C(COS(=O)(=O)O)OC(OCCCCCN)C(NS(=O)(=O)O)C7O)C(OS(=O)(=O)O)C6O)C(NS(=O)(=O)O)C5O)C(OS(=O)(=O)O)C4O)C(NS(=O)(=O)O)C3O)C(O)C2O)OC(Cn2cc(CCC(=O)NCCCCCOC3OC(COS(=O)(=O)O)C(OC4OC(C(=O)O)C(OC5OC(COS(=O)(=O)O)C(OC6OC(C(=O)O)C(OC7OC(COS(=O)(=O)O)C(OC8OC(C(=O)O)C(O)C(O)C8O)C(O)C7NS(=O)(=O)O)C(O)C6OS(=O)(=O)O)C(O)C5NS(=O)(=O)O)C(O)C4OS(=O)(=O)O)C(O)C3NS(=O)(=O)O)nn2)C(O)C1O` (stereo not drawn) [Compound 4], in series [3], the half-inhibitory concentration (IC50) was greater than 10 µM.
